This note sets out measurements from ChEMBL document CHEMBL4184094, “Spiro-1-benzofuranpiperidinylalkanoic acids as a novel and selective sphingosine S1P5 receptor agonist chemotype” (Bioorg Med Chem Lett, 2018).

The target in data set [1] is Sphingosine 1-phosphate receptor 5 (Homo sapiens, UniProt Q9H228). In words: Agonist activity at human S1P5 receptor expressed in CHO cells assessed as increase in calcium flux by aequorin-derived luminescence assay. It is filed as functional, cell-based.
The target in data set [2] is Sphingosine 1-phosphate receptor 1 (Homo sapiens, UniProt P21453). In words: Agonist activity at human S1P1 receptor expressed in CHO cells assessed as increase in calcium flux by aequorin-derived luminescence assay. The data set is classed as functional, cell-based.
In data set [3] the target is Sphingosine 1-phosphate receptor 3 (Homo sapiens, UniProt Q99500). Description: Agonist activity at human S1P3 receptor expressed in CHO cells assessed as increase in calcium flux by aequorin-derived luminescence assay. The data set is classed as functional, cell-based.
Data set [4] in a line: Aqueous kinetic solubility of the compound by turbidimetric method. The data set is classed as physicochemical. Particulars: buffer; read-out: Kinetic_solubility.
Data set [5] is described as follows: Intrinsic clearance in human microsomes assessed per mg protein. The data set is classed as ADME, Microsome.
Data set [6] is described as follows: Half life in human microsomes assessed per mg protein. It is filed as ADME, Microsome.
The species named for data set [7] is Homo sapiens. Description: Selectivity ratio of EC50 for human S1P5 receptor expressed in CHO cells to EC50 for human S1P3 receptor expressed in CHO cells. The data set is classed as cell-based.
Data set [8] is described as follows: Oral bioavailability in rat. It is filed as ADME, organism-based. Particulars: in vivo.
Data set [9] is described as follows: Ratio of drug uptake in CNS to plasma in po dosed rat. It is filed as ADME, organism-based. Particulars: CNS and plasma.
For data set [10], the species on record is Homo sapiens. In words: Selectivity ratio of EC50 for human S1P5 receptor expressed in CHO cells to EC50 for human S1P1 receptor expressed in CHO cells. The data set is classed as cell-based.

≈ marks a conversion by molar mass, not a printed value.

Chain of Sphingosine 1-phosphate receptor 1 (P21453 whole entry): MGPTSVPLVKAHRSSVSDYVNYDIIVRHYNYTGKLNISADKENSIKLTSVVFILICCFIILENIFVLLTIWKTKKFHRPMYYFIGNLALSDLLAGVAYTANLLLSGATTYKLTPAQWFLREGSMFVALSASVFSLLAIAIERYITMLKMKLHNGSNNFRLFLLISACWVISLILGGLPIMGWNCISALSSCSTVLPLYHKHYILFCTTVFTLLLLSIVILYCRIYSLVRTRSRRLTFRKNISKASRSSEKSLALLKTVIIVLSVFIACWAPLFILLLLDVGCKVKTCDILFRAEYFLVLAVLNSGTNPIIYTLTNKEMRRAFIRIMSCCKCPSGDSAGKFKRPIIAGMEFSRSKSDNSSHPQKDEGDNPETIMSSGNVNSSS
Chain of Sphingosine 1-phosphate receptor 5 (Q9H228 whole entry): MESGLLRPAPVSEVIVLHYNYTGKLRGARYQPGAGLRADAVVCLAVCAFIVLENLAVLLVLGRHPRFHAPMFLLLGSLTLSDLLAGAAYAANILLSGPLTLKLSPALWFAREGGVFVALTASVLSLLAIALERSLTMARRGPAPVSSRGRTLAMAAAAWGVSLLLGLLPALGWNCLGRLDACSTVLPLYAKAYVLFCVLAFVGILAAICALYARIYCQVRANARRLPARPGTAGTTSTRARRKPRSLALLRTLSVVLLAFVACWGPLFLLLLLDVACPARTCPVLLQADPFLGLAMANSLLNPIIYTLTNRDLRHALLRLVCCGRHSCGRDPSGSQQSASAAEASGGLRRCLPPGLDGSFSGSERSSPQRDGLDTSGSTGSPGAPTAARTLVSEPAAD
Chain of Sphingosine 1-phosphate receptor 3 (Q99500 whole entry): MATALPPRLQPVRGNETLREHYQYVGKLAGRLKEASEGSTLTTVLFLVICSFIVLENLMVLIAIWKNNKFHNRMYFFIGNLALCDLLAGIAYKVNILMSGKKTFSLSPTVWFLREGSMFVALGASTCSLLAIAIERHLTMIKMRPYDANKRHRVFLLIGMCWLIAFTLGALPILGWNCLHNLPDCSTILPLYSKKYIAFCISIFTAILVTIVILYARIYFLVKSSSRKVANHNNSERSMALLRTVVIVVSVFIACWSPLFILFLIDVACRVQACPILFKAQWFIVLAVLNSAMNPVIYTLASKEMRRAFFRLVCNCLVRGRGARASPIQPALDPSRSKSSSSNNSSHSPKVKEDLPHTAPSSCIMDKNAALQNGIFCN

Consider `Cl.O=C(O)CCN1CCC2(CC1)COc1c2ccc(OCc2c(Cl)cccc2Cl)c1F`, for which the figures for the EC50 in [1], in [2] and in [3] were 0.00631 µM, 1 µM and over 10 µM, respectively. Besides, the solubility kinetic in data set [4] lay within 30 to 100 µM. Further, the microsomal CLint (commonly a measure of how fast metabolising enzymes remove a compound, apart from limits set by blood flow) in data set [5] was 6.5 µL/min/mg. In addition, the half-life (in general, how long it takes for the measured level to halve) in [6] is 3.55 h. In the data set listed under Homo sapiens [7], the Ratio EC50 was 1000.

For the molecule `CCc1cccc(Cl)c1CSc1ccc2c(c1)OCC21CCN(CCC(=O)O)CC1.Cl`, the 50% effective concentration (EC50) – broadly, the concentration giving half of the maximal effect – in [1] is 0.00251 µM; in data set [2] it was 0.126 µM; in data set [3], over 1 µM. For the same molecule, in data set [4], the solubility kinetic lay within 30 to 100 µM. In data set [5], this molecule showed a microsomal CLint of 42 µL/min/mg. Further, in [6], the half-life is 0.55 h. For the same molecule, the Ratio EC50 in the data set filed under Homo sapiens [7] came out at 100.

Consider `O=C(O)CCN1CCC2(CC1)COc1cc(OCCCc3ccccc3)ccc12`, for which the values for the EC50 in [1], in data set [2] and in [3] were 2 µM, 5.01 µM and 1.58 µM, respectively.

`CC(C)c1cccc(Cl)c1COc1ccc2c(c1)OCC21CCN(CCC(=O)O)CC1.Cl`: the EC50 is 0.0251 µM in [1], 1.26 µM in [2] and over 10 µM in [3]. Also, in [4], the solubility kinetic was in the range of 30 to 100 µM. Further, the microsomal CLint in data set [5] was 2.1 µL/min/mg. Further, in data set [6], the half-life amounted to 11.2 h. The Ratio EC50 in the data set filed under Homo sapiens [7] turned out to be 100.

For the molecule `O=C(O)CCN1CCC2(CC1)COc1cc(OCc3c(Cl)cccc3OC(F)(F)F)ccc12`, the EC50 in data set [1] is 0.02 µM; in data set [2], 3.98 µM.

Take `Cl.O=C(O)CCN1CCCC2(COc3cc(OCc4c(Cl)cccc4Cl)ccc32)C1` (stereo unspecified): the EC50 in data set [1] is 0.1 µM. For the same molecule, in data set [4], the solubility kinetic is at least 100 µM. In data set [5], the microsomal CLint is 3.1 µL/min/mg. In data set [6], this molecule had a half-life of 7.57 h. In addition, in the data set filed under Homo sapiens [7], the Ratio EC50 amounted to 100.

In the case of `CC(CN1CCC2(CC1)COc1cc(OCc3c(Cl)cccc3Cl)ccc12)C(=O)O` (stereo unspecified), the EC50 in data set [1] was 0.0631 µM; in data set [2] it was 1.26 µM.

Take `Cc1cc(Cl)c(COc2ccc3c(c2)OCC32CCN(CCC(=O)O)CC2)c(Cl)c1`: the EC50 in data set [1] is 0.00794 µM; in [2], 0.316 µM.

In the case of `Cl.O=C(O)CN1CCC2(CC1)COc1cc(S(=O)(=O)Cc3c(Cl)cccc3Cl)ccc12`, the results for the EC50 in data set [1], in data set [2] and in [3] were 0.794 µM, over 31.6 µM and over 10 µM, respectively. In data set [4], the solubility kinetic is at least 100 µM. In addition, the CL in data set [5] came to 33 µL/min. Moreover, the t1/2 in data set [6] stood at 2.15 h.

Consider `Cl.O=C(O)CCN1CCC2(CC1)COc1cc(C#Cc3ccccc3)ccc12`, for which the EC50 in data set [1] was 0.0398 µM. Further, the solubility kinetic in [4] was 100 µM. In addition, the microsomal CLint in data set [5] stood at 8.3 µL/min/mg. Also, the half-life in data set [6] was determined as 2.78 h.

`CCCCCCCCc1ccc(CCC(N)(CO)CO)cc1` [FINGOLIMOD]: the EC50 is 3.16 µM in data set [1] and 2.51 µM in data set [3]. Also, in data set [4], the solubility kinetic lay within 1 to 6.5 µM (≈ 0.307 to 2 µg/mL).

For `Cl.O=C(O)CCN1CCC2(CC1)COc1cc(/C=C/c3c(Cl)cccc3Cl)ccc12`, the EC50 in data set [1] was 0.0126 µM; in data set [2], over 31.6 µM. For the same molecule, the solubility kinetic in data set [4] fell in the range of 30 to 100 µM. In addition, in [5], the microsomal CLint amounted to 0.76 µL/min/mg. The molecule further registered a half-life in [6] of 30.3 h. Besides, the bioavailability (as a rule, the share of a dose that reaches the circulation, judged against a reference dose that is usually intravenous) in data set [8] was determined as 73%. Besides, the Kp (usually tissue or fluid exposure divided by exposure in the circulation) in data set [9] was 0.8.

With `O=C(O)CCN1CCC2(CC1)COc1cc(OCc3cc(Cl)ccc3Cl)ccc12`, the EC50 in data set [1] is 0.2 µM; in data set [2] it was 12.6 µM; in data set [3], 1 µM.

For `Cl.O=C(O)CCN1CCC2(CC1)COc1cc(OCc3cc(Cl)nc(Cl)c3)ccc12`, the EC50 in [1] was 0.316 µM; in data set [2], over 31.6 µM; in data set [3], over 10 µM. Also, the solubility kinetic in [4] was over 100 µM. The molecule further came in with a microsomal CLint in data set [5] of 13.9 µL/min/mg. In addition, in [6], the half-life worked out at 1.67 h.

As for `O=C(O)C(F)(F)F.O=C(O)CCN1CCC2(CC1)COc1cc(OCc3ccccc3Cl)ccc12`, the EC50 in data set [1] is 0.126 µM; in data set [3], over 31.6 µM. Further, the solubility kinetic in data set [4] was in the range of 30 to 100 µM. This molecule also had a microsomal CLint in [5] of 9.1 µL/min/mg. The same molecule showed a half-life in [6] of 2.55 h.

`Cl.O=C(O)CCN1CCC2(CC1)COc1cc(OCc3c(Cl)cccc3Cl)ccc12`: the EC50 in [1] is 0.158 µM; in data set [2] it was 6.31 µM; in data set [3] it was over 10 µM. Besides, the solubility kinetic in [4] is at least 100 µM. The same molecule displayed a microsomal CLint in data set [5] of 3.1 µL/min/mg. The half-life in data set [6] turned out to be 7.45 h. Further, in data set [9], the Kp came out at 0.2.

Regarding `CCCc1cccc(Cl)c1COc1ccc2c(c1)OCC21CCN(CCC(=O)O)CC1`, the EC50 in data set [1] was 0.0158 µM; in data set [2], 2 µM; in data set [3] it was 2 µM. Also, in the data set filed under Homo sapiens [7], the Ratio EC50 amounted to 100.

`O=C(O)CCN1CCC2(CC1)COc1cc(OCc3c(Cl)cccc3C(F)(F)F)ccc12`: the values for the EC50 in [1], in [2] and in data set [3] were 0.126 µM, 0.316 µM and over 10 µM, respectively.

Regarding `O=P(O)(O)OCCN1CCC2(CC1)COc1cc(OCc3c(Cl)cccc3Cl)ccc12`, the EC50 in [1] was 0.02 µM; in [2] it was 0.251 µM; in data set [3], over 10 µM. For the same molecule, the Ratio EC50 in the data set filed under Homo sapiens [7] stood at 100.

For the molecule `Cl.O=C(O)CCN1CCC2(CC1)COc1cc(OCc3c(F)cccc3Cl)ccc12`, the EC50 was 0.0631 µM in data set [1] and 6.31 µM in data set [2]. Moreover, the solubility kinetic in data set [4] lay in the range of 30 to 100 µM. The molecule also returned a microsomal CLint in data set [5] of 2.7 µL/min/mg. The molecule further returned a half-life in data set [6] of 8.42 h. For the same molecule, the Ratio EC50 in the data set listed under Homo sapiens [7] was determined as 100.

In the case of `O=C(O)CCN1CCC2(CC1)COc1cc(OCc3cccc(Cl)c3)ccc12`, the EC50 in data set [1] is 0.316 µM; in data set [2], over 10 µM; in data set [3] it was over 10 µM.

Regarding `O=C(O)CN1CCC2(CC1)COc1cc(OCc3c(Cl)cccc3Cl)ccc12`, the figures for the EC50 in data set [1], in data set [2] and in data set [3] were 0.0316 µM, 6.31 µM and over 1 µM, respectively. Besides, the Ratio EC50 in the data set listed under Homo sapiens [7] came to 100.

`CCc1cccc(Cl)c1COc1ccc2c(c1)OCC21CCN(CC(C)C(=O)O)CC1.Cl` (stereo unspecified): the EC50 in [1] is 0.0158 µM; in data set [2], 0.316 µM; in [3] it was over 10 µM. For the same molecule, the solubility kinetic in data set [4] is at least 100 µM. Also, the microsomal CLint in [5] was found to be 6.1 µL/min/mg. This molecule came in with a half-life in [6] of 3.8 h. Also, the Ratio EC50 in the data set listed under Homo sapiens [7] was found to be 100.

As for `CCc1cccc(Cl)c1COc1ccc2c(c1)OCC21CCCN(CCC(=O)O)C1.Cl` (stereo unspecified), the values for the EC50 in data set [1], in [2] and in data set [3] were 0.0316 µM, over 31.6 µM and over 10 µM, respectively. Further, the solubility kinetic in data set [4] was at least 100 µM. This molecule also yielded a microsomal CLint in data set [5] of 3.4 µL/min/mg. Besides, the half-life in [6] amounted to 6.82 h. Also, the Ratio EC50 was 100 in the data set filed under Homo sapiens [7] and 1000 in the data set listed under Homo sapiens [10].

With `Cl.O=C(O)CCN1CCC2(CC1)COc1cc(SCc3c(Cl)cccc3Cl)ccc12`, the EC50 in data set [1] is 0.0126 µM; in data set [2], over 10 µM; in [3], 3.98 µM. The solubility kinetic in data set [4] is at least 100 µM. In addition, the microsomal CLint in [5] was found to be 21 µL/min/mg. Further, the half-life in data set [6] came out at 1.08 h. The Ratio EC50 in the data set filed under Homo sapiens [7] stood at 100; in the data set listed under Homo sapiens [10] it was 1000.

In the case of `O=C(O)CCN1CCC2(CC1)COc1cc(OCc3ccccc3)ccc12`, the EC50 was 1 µM in data set [1], over 31.6 µM in data set [2] and over 10 µM in data set [3].

For the molecule `CCc1cccc(CC)c1COc1ccc2c(c1)OCC21CCN(CCC(=O)O)CC1`, the results for the EC50 in [1], in data set [2] and in data set [3] were 0.02 µM, 1.58 µM and 1.58 µM, respectively. Also, the solubility kinetic in data set [4] is at least 100 µM. The same molecule had a microsomal CLint in [5] of 0.92 µL/min/mg. Further, the half-life in data set [6] was found to be 25.2 h.

For the molecule `CCc1cccc(Cl)c1COc1ccc2c(c1)OCC21CCN(CCC(=O)O)CC1`, the EC50 in [1] is 0.0158 µM; in data set [3] it was over 10 µM. In addition, the Ratio EC50 in the data set listed under Homo sapiens [7] came to 100.

With `O=C(O)CCCN1CCC2(CC1)COc1cc(OCc3c(Cl)cccc3Cl)ccc12`, the EC50 in [1] is 0.0158 µM; in [2], 5.01 µM; in [3], 1.26 µM.

Consider `O=C(O)CCN1CCC2(CC1)COc1cc(OCc3cccc(Cl)c3Cl)ccc12`, for which the EC50 is 0.2 µM in data set [1], 1.58 µM in data set [2] and over 10 µM in [3].

`O=C(O)CCN1CCC2(CC1)COc1cc(C#Cc3ccccc3Cl)ccc12`: the EC50 was 0.0251 µM in [1], over 31.6 µM in data set [2] and over 10 µM in [3]. In addition, the results for the Ratio EC50 in the data set filed under Homo sapiens [7] and in the data set filed under Homo sapiens [10] were 100 and 1000, respectively.
